The source of these data is patent US12435031B2, “Compound with broad-spectrum antibacterial activity and its antibacterial composition” (CHINA AGRICULTURAL UNIVERSITY, priority 2023, dated 2025).

Values after ≈ are worked out from the molar mass of the structure shown. Like-named read-outs stand apart in the source and are kept apart here.

In the assay the test system is Clostridium perfringens. Kind of assay: microbe, parasite or virus in culture. It counts as cell-based.
Setting [1] is: Clostridium perfringens, read-out: MIC value against Clostridium perfringens, strain A3-1 (A-type).
The mark [2] stands for this setting: Clostridium perfringens, read-out: MIC value against Clostridium perfringens, strain A3-2 (A-type).
Where [3] appears, read: Clostridium perfringens, read-out: MIC value against Clostridium perfringens, strain A57-1 (A-type).
[4] abbreviates: Clostridium perfringens, read-out: MIC value against Clostridium perfringens, strain B4 (B-type).
Where [5] appears, read: Clostridium perfringens, read-out: MIC value against Clostridium perfringens, strain B5 (B-type).
Setting [6] is: Clostridium perfringens, read-out: MIC value against Clostridium perfringens, strain C3 (C-type).
Setting [7] is: Clostridium perfringens, read-out: MIC value against Clostridium perfringens, strain C8 (C-type).
Setting [8] is: Clostridium perfringens, read-out: MIC value against Clostridium perfringens, strain C59-1 (C-type).
Setting [9] is: Clostridium perfringens, read-out: MIC value against Clostridium perfringens, strain D14B (D-type).
Where [10] appears, read: Clostridium perfringens, read-out: MIC value against Clostridium perfringens, strain F5-2 (F-type).
Where [11] appears, read: Clostridium perfringens, read-out: MIC value against Clostridium perfringens, strain F6-1 (F-type).
Where [12] appears, read: Clostridium perfringens, read-out: MIC value against Clostridium perfringens, strain F6-2 (F-type).
The mark [13] stands for this setting: Clostridium perfringens, read-out: MIC value against Clostridium perfringens, strain F6-2-1 (F-type).
[14] abbreviates: Clostridium perfringens, read-out: MIC value against Clostridium perfringens, strain F6-2-2 (F-type).
Setting [15] is: Clostridium perfringens, read-out: MIC value against Clostridium perfringens, strain F7-1 (F-type).
Where [16] appears, read: Clostridium perfringens, read-out: MIC value against Clostridium perfringens, strain F8-1 (F-type).
[17] abbreviates: Clostridium perfringens, read-out: MIC value against Clostridium perfringens, strain H12-1 (H-type).
[18] abbreviates: Clostridium perfringens, read-out: MIC value against Clostridium perfringens, strain H12-2 (H-type).
Setting [19] is: Clostridium perfringens, read-out: MIC value against Clostridium perfringens, strain H13-1 (H-type).
Where [20] appears, read: Clostridium perfringens, read-out: MIC value against Clostridium perfringens, strain H14-1 (H-type).
[21] abbreviates: Clostridium perfringens, read-out: MIC value against Clostridium perfringens, strain H14-2 (H-type).
[22] abbreviates: Clostridium perfringens, read-out: MIC value against Clostridium perfringens, strain H14-4 (H-type).
Setting [23] is: Clostridium perfringens, read-out: MIC value against Clostridium perfringens, strain H15-1 (H-type).
[24] abbreviates: Clostridium perfringens, read-out: MIC value against Clostridium perfringens, strain H15-2 (H-type).
[25] abbreviates: Clostridium perfringens, read-out: MIC value against Clostridium perfringens, strain H15-3 (H-type).
Setting [26] is: Clostridium perfringens, read-out: MIC value against Clostridium perfringens, strain H16 (H-type).

Take `CO/N=C(\C(=O)N[C@@H]1C(=O)N2C(C(=O)O)=C(CSC(=O)c3ccco3)CS[C@H]12)c1csc(N)n1` [CEF, Ceftiofur]: the MIC by setting is: under setting [1], no more than 0.25 µg/mL; under setting [2], no more than 0.25 µg/mL; under setting [3], no more than 0.25 µg/mL; under setting [4], no more than 0.25 µg/mL; under setting [5], no more than 0.25 µg/mL; under setting [6], 1 µg/mL (≈ 1.91 µM). For the same compound, the MIC is, setting by setting: under setting [7], no more than 0.25 µg/mL; under setting [8], no more than 0.25 µg/mL; under setting [9], no more than 0.25 µg/mL; under setting [10], no more than 0.25 µg/mL; under setting [11], no more than 0.25 µg/mL; under setting [12], no more than 0.25 µg/mL. The MIC reads like this: under setting [13], no more than 0.25 µg/mL; under setting [14], no more than 0.25 µg/mL; under setting [15], no more than 0.25 µg/mL; under setting [16], no more than 0.25 µg/mL; under setting [17], no more than 0.25 µg/mL; under setting [18], no more than 0.25 µg/mL. In addition, the MIC is no more than 0.25 µg/mL under setting [19]; no more than 0.25 µg/mL under setting [20]; no more than 0.25 µg/mL under setting [21]; no more than 0.25 µg/mL under setting [22]; no more than 0.25 µg/mL under setting [23]; no more than 0.25 µg/mL under setting [24]. Moreover, the MIC is no more than 0.25 µg/mL under setting [25] and no more than 0.25 µg/mL under setting [26].

`O=C(Nc1cc(F)c(Cl)c(Cl)c1)c1cc(Cl)ccc1O` [BAB166] gave an MIC50 (Clostridium perfringens) of 32 µg/mL (≈ 95.6 µM).

`CCC[C@@H]1C[C@@H](C(=O)N[C@@H]([C@H]2O[C@H](SC)[C@H](O)[C@@H](O)[C@H]2O)[C@@H](C)O)N(C)C1` [LIN, Lincomycin] gave an MIC50 (Clostridium perfringens) of 8 µg/mL (≈ 19.7 µM). This compound showed an MIC90 (Clostridium perfringens) greater than 128 µg/mL. For the same compound, the MIC by setting is: under setting [1], 1 µg/mL (≈ 2.46 µM); under setting [2], 0.5 µg/mL (≈ 1.23 µM); under setting [3], 2 µg/mL (≈ 4.92 µM); under setting [4], greater than 128 µg/mL; under setting [5], greater than 128 µg/mL; under setting [6], greater than 128 µg/mL. The MIC was 128 µg/mL (≈ 315 µM) under setting [7]; 0.5 µg/mL (≈ 1.23 µM) under setting [8]; 64 µg/mL (≈ 157 µM) under setting [9]; 128 µg/mL (≈ 315 µM) under setting [10]; 32 µg/mL (≈ 78.7 µM) under setting [11]; 32 µg/mL (≈ 78.7 µM) under setting [12]. Further, the MIC reads like this: under setting [13], 128 µg/mL (≈ 315 µM); under setting [14], 128 µg/mL (≈ 315 µM); under setting [15], greater than 128 µg/mL; under setting [16], greater than 128 µg/mL; under setting [17], 0.5 µg/mL (≈ 1.23 µM); under setting [18], no more than 0.25 µg/mL. In addition, the MIC is 4 µg/mL (≈ 9.84 µM) under setting [19]; 8 µg/mL (≈ 19.7 µM) under setting [20]; 8 µg/mL (≈ 19.7 µM) under setting [21]; 4 µg/mL (≈ 9.84 µM) under setting [22]; no more than 0.25 µg/mL under setting [23]; 4 µg/mL (≈ 9.84 µM) under setting [24]. For the same compound, the MIC is 4 µg/mL (≈ 9.84 µM) under setting [25] and 4 µg/mL (≈ 9.84 µM) under setting [26].

For the setting “Clostridium perfringens”, `C[C@H]1c2cccc(O)c2C(=O)C2=C(O)[C@]3(O)C(=O)C(C(N)=O)=C(O)[C@@H](N(C)C)[C@@H]3[C@@H](O)[C@@H]21` [DOX, Doxycycline] gave an MIC50 of 8 µg/mL (≈ 18 µM). Also, the MIC90 (Clostridium perfringens) was 16 µg/mL (≈ 36 µM). The MIC under setting [1] is 8 µg/mL (≈ 18 µM); the MIC under setting [2] came to 8 µg/mL (≈ 18 µM); the MIC under setting [3] is no more than 0.25 µg/mL; the MIC under setting [4] stood at 2 µg/mL (≈ 4.5 µM); the MIC under setting [5] was 8 µg/mL (≈ 18 µM); the MIC under setting [6] turned out to be 16 µg/mL (≈ 36 µM). Also, the MIC is, setting by setting: under setting [7], no more than 0.25 µg/mL; under setting [8], no more than 0.25 µg/mL; under setting [9], 1 µg/mL (≈ 2.25 µM); under setting [10], 4 µg/mL (≈ 9 µM); under setting [11], 32 µg/mL (≈ 72 µM); under setting [12], 16 µg/mL (≈ 36 µM). Further, the MIC under setting [13] was 16 µg/mL (≈ 36 µM); the MIC under setting [14] was 16 µg/mL (≈ 36 µM); the MIC under setting [15] came to 8 µg/mL (≈ 18 µM); the MIC under setting [16] turned out to be 16 µg/mL (≈ 36 µM); the MIC under setting [17] was 4 µg/mL (≈ 9 µM); the MIC under setting [18] worked out at 4 µg/mL (≈ 9 µM). Moreover, the MIC under setting [19] came out at 8 µg/mL (≈ 18 µM); the MIC under setting [20] was 8 µg/mL (≈ 18 µM); the MIC under setting [21] was 8 µg/mL (≈ 18 µM); the MIC under setting [22] was determined as 4 µg/mL (≈ 9 µM); the MIC under setting [23] amounted to 16 µg/mL (≈ 36 µM); the MIC under setting [24] worked out at 16 µg/mL (≈ 36 µM). In addition, the MIC runs as follows: under setting [25], 8 µg/mL (≈ 18 µM); under setting [26], 8 µg/mL (≈ 18 µM).

`Cc1cc(C(F)(F)F)ccc1NC(=O)c1cc(Cl)ccc1O` [BAB151] displayed an MIC50 (Clostridium perfringens) of 8 µg/mL (≈ 24.3 µM).

With `Cc1c(C(=O)C=Cc2ccccc2)[n+](=O)c2ccccc2n1[O-]` [QCT, Quincetone], the “MIC value against Clostridium perfringens” value (shortened to “MIC value”) by setting is: (strain A3-1 (A-type)) 0.5 µg/mL (≈ 1.63 µM); (strain A3-2 (A-type)) no more than 0.25 µg/mL; (strain A57-1 (A-type)) no more than 0.25 µg/mL; (strain B4 (B-type)) no more than 0.25 µg/mL; (strain B5 (B-type)) no more than 0.25 µg/mL; (strain C3 (C-type)) 1 µg/mL (≈ 3.26 µM). For the same compound, the “MIC value” value reads like this: (strain C8 (C-type)) no more than 0.25 µg/mL; (strain C59-1 (C-type)) no more than 0.25 µg/mL; (strain D14B (D-type)) no more than 0.25 µg/mL; (strain F5-2 (F-type)) 0.5 µg/mL (≈ 1.63 µM); (strain F6-1 (F-type)) 4 µg/mL (≈ 13.1 µM); (strain F6-2 (F-type)) 0.5 µg/mL (≈ 1.63 µM). The “MIC value” value runs as follows: (strain F6-2-1 (F-type)) 1 µg/mL (≈ 3.26 µM); (strain F6-2-2 (F-type)) no more than 0.25 µg/mL; (strain F7-1 (F-type)) no more than 0.25 µg/mL; (strain F8-1 (F-type)) 0.5 µg/mL (≈ 1.63 µM); (strain H12-1 (H-type)) no more than 0.25 µg/mL; (strain H12-2 (H-type)) no more than 0.25 µg/mL. The “MIC value” value runs as follows: (strain H13-1 (H-type)) no more than 0.25 µg/mL; (strain H14-1 (H-type)) no more than 0.25 µg/mL; (strain H14-2 (H-type)) 0.5 µg/mL (≈ 1.63 µM); (strain H14-4 (H-type)) no more than 0.25 µg/mL; (strain H15-1 (H-type)) no more than 0.25 µg/mL; (strain H15-2 (H-type)) no more than 0.25 µg/mL. Moreover, the “MIC value” value runs as follows: (strain H15-3 (H-type)) 0.5 µg/mL (≈ 1.63 µM); (strain H16 (H-type)) no more than 0.25 µg/mL.

Under “Clostridium perfringens”, `C=C[C@]1(C)C[C@@H](OC(=O)CSCCN(CC)CC)[C@]2(C)[C@H](C)CC[C@]3(CCC(=O)[C@H]32)[C@@H](C)[C@@H]1O` [TIA, Tiamulin] came in with an MIC90 of 8 µg/mL (≈ 16.2 µM). The MIC50 (Clostridium perfringens (n=26), unit as printed for tiamulin) is 0.5 µg/mL (≈ 1.01 µM). The MIC runs as follows: under setting [1], 0.5 µg/mL (≈ 1.01 µM); under setting [2], 0.5 µg/mL (≈ 1.01 µM); under setting [3], 4 µg/mL (≈ 8.1 µM); under setting [4], 4 µg/mL (≈ 8.1 µM); under setting [5], 0.5 µg/mL (≈ 1.01 µM); under setting [6], 8 µg/mL (≈ 16.2 µM). In addition, the MIC reads like this: under setting [7], 0.5 µg/mL (≈ 1.01 µM); under setting [8], no more than 0.25 µg/mL; under setting [9], 8 µg/mL (≈ 16.2 µM); under setting [10], 0.5 µg/mL (≈ 1.01 µM); under setting [11], 0.5 µg/mL (≈ 1.01 µM); under setting [12], 0.5 µg/mL (≈ 1.01 µM). Moreover, the MIC was 0.5 µg/mL (≈ 1.01 µM) under setting [13]; 0.5 µg/mL (≈ 1.01 µM) under setting [14]; 4 µg/mL (≈ 8.1 µM) under setting [15]; 4 µg/mL (≈ 8.1 µM) under setting [16]; 0.5 µg/mL (≈ 1.01 µM) under setting [17]; no more than 0.25 µg/mL under setting [18]. Also, the MIC by setting is: under setting [19], 4 µg/mL (≈ 8.1 µM); under setting [20], 8 µg/mL (≈ 16.2 µM); under setting [21], 8 µg/mL (≈ 16.2 µM); under setting [22], 4 µg/mL (≈ 8.1 µM); under setting [23], no more than 0.25 µg/mL; under setting [24], 4 µg/mL (≈ 8.1 µM). The MIC is, setting by setting: under setting [25], 4 µg/mL (≈ 8.1 µM); under setting [26], 4 µg/mL (≈ 8.1 µM).
